# According to patent publication US8563258B2, “Allergy test based on flow cytometric analysis” (Buhlmann Laboratories AG, priority 2007, dated 2013):
# Like-named read-outs stand apart in the source and are kept apart here.
# How the values were obtained:
# basophilic cells = settings: for MFI-CCR3 shift (cytotoxic concentration): human
# Text: In Protocol 1 anti-IgE-FITC is used as the basophil selection marker, whereas in Protocol 2 anti-CCR3-PE is used.
# basophils [1] = experiment: Alternative use of FcεRI instead of IgE as basophil selection/activation marker (Example 7); format: cell-based, human; settings: for MFI Activation Index (anti-FcεRI-AF647 and anti-IgE-AF647): Amoxicillin allergic patient
# basophils [2] = test system: basophils
# Text: Peripheral blood leukocytes are isolated from patients' whole blood samples and primed with Stimulation Buffer containing interleukin 3 (IL-3). […] During this activation intracellular compounds containing the transmembrane protein CD63 are fused to the cellular membrane and therefore exposed to the extracellular matrix.
# A highly specific monoclonal antibody (mAb) recognizing the high affinity IgE binding receptor (FcεRI) is used as a positive control, leading to the activation of the basophils by mimicking the bridging event.
# After stopping the reaction the Staining Reagent is added containing a mixture of monoclonal antibodies to human CD63 labeled with phycoerythrin (anti-CD63-PE) and to human IgE labeled with fluorescein isothiocyanate (anti-IgE-FITC). The remaining erythrocytes are removed by a lysing reaction and after blocking the reaction the cells are analyzed by flow cytometry.
# Mix the anti-coagulated blood sample by inverting the venipuncture tube several times. Centrifuge the venipuncture tube for 5 minutes at 200×g. After the centrifugation step, two phases can be observed from top to the bottom of the tube: • i) plasma fraction containing the leukocytes • ii) erythrocyte fraction • Alternative procedure for cell separation: • Mix the anti-coagulated blood sample by inverting the venipuncture tube several times. • Let the samples sediment (erythrocytes) at room temperature for one hour. Collect the upper phase (plasma fraction containing the leukocytes) and continue with step 2. • If the erythrocytes sedimentation is not complete after one hour of incubation, the centrifugation step above is recommended. • 2. Collect the plasma fraction with the leukocytes on the top of the erythrocytes with a disposable plastic syringe or plastic pipette and transfer it into a fresh and pyrogen-free 5 ml polypropylene or polystyrene tube. • NOTE: Because of the low amount of basophils in the leukocyte fraction it is important to collect the entire plasma fraction. […] Centrifuge for 10 minutes at 500×g. Completely remove the plasma fraction on the top of the cell pellet with a pipette. • 4. Add 100 μl of Stimulation Buffer per ml of blood used at the beginning (i.e. for 5 ml blood sample used, the pellet has to be solved with 500 μl of Stimulation Buffer). Resuspend the leukocytes pellet carefully. • 5a. For each patient, label pyrogen-free polystyrene tubes suited for Flow Cytometry measurements (e.g., PB=patient background=negative control, PC=stimulation control with anti-FcεRI Ab, A1-1 for antigen 1 with dilution 1, A1-2 for allergen 1 with dilution 2, etc.) or use tissue culture grade microtiter plates. • 5b. Pipet 50 μl of Stimulation Buffer (background 0 negative control) into the PB tube of each patient. • 5c. Pipet 50 μl of Stimulation Control into the PC tube of each patient. • 5d. Pipet 50 μl of Allergen (=test substance) into the corresponding patient tubes. • 6. Pipet 50 μl of each patient's cell suspension into the corresponding tubes. • 7. Vortex gently, cover the tubes and incubate for 40±5 minutes at 37° C. in a water bath. • 8. Add 50 μl of cold Blocking Buffer to each tube. • 9. Add 20 μl of cold Staining Reagent to each tube. Vortex gently. • 10. Incubate for 30±5 minutes at 2-8° C. • 11. Vortex gently the sedimented cells, add 3.5 ml of pre-warmed (18-28° C.) Lysing Reagent to each tube and incubate for 5±1 minutes at 18-28° C. • 12. Stop the reaction with 1 ml of Blocking Buffer. • 13. Centrifuge for 5 minutes at 1000-1200×g. • 14. Decant or aspirate the supernatant and resuspend the cell pellet with 500 μl of Blocking Buffer. Vortex gently. • 15. Proceed to the analysis by Flow Cytometry within 2 hours.
# Flow cytometric analysis can be performed on any flow cytometer containing a 488 nm argon laser (blue-green excitation light) and the corresponding software.
# blood basophils = settings: 21 normal blood donors
# Protocol: Therefore, we established two protocols, one with diluted whole blood, wherein the EDTA blood sample is diluted 1 in 4 with cellular incubation buffer (the Stimulation Buffer) and another with purified blood, wherein the basophils were transferred from its plasma matrix to a plasma-free matrix such as the cellular incubation buffer by centrifuging and washing the blood cells.
compound,measurement,setting,value
CC1(C)S[C@@H]2[C@H](NC(=O)[C@H](N)c3ccc(O)cc3)C(=O)N2[C@H]1C(=O)O [Amoxicillin],CCR3 positive cells after stimulation,"basophilic cells; 2 mg/ml, CCR3 selection marker",can still be easily identified
same,IgE positive basophilic cells after stimulation,"basophilic cells; 2 mg/ml, IgE selection marker",disappearing
same,MFI Activation Index (anti-FcεRI-AF647 and anti-IgE-AF647),basophils [1]; 0.04 mg/ml (C3),negative
same,MFI Activation Index (anti-FcεRI-AF647 and anti-IgE-AF647),basophils [1]; 0.2 mg/ml (C2),intermediate
same,MFI Activation Index (anti-FcεRI-AF647 and anti-IgE-AF647),basophils [1]; 1 mg/ml (C1),strong activation
same,"result of all methods tested (CD63 expression, combined Activation Index, spIgE, skin test)",basophils [2]; Patient 4 (control subject),negative result
same,combined MFI-IgE/CD63 Activation Index,basophils [2]; Patient 5,positive result
same,CD63 expression,"basophils [2]; Patient 5, cutoff 5% plus SI≧2",negative
CC(=O)Oc1ccccc1C(=O)O [Aspirin],MFI-CCR3 shift (cytotoxic concentration),basophilic cells; 5 mg/ml,clearcut downregulation of MFI-CCR3
same,combined MFI-IgE/CD63 Activation Index,basophils [2]; Patient 8,positive results
same,CD63 expression,basophils [2]; Patient 9,clearcut reaction
same,combined MFI-IgE/CD63 Activation Index,basophils [2]; Patient 9,clearcut reaction
"CSCC[C@H](NC=O)C(=O)N[C@@H](CC(C)C)C(=O)N[C@@H](Cc1ccccc1)C(=O)O [fMLP, N-formyl-L-methionyl-L-leucyl-L-phenylalanine]",stimulation yield as alternative positive control,basophils [1]; compared with anti-FcεRI mAb,lower stimulation yields than anti-FcεRI mAb
O=C(O)Cc1ccccc1Nc1c(Cl)cccc1Cl [Diclofenac],CD63 expression,basophils [2]; Patient 9,clearcut reaction
same,combined MFI-IgE/CD63 Activation Index,basophils [2]; Patient 9,clearcut reaction
CC(C)Cc1ccc(C(C)C(=O)O)cc1 (stereo not shown) [Ibuprofen],combined MFI-IgE/CD63 Activation Index,basophils [2]; Patient 8,positive results
same,CD63 expression,basophils [2]; Patient 9,clearcut reaction
same,combined MFI-IgE/CD63 Activation Index,basophils [2]; Patient 9,clearcut reaction
COc1ccc2cc([C@H](C)C(=O)O)ccc2c1 [Naproxen],unspecific stimulatory effects on basophils,"blood basophils; 1 mg/ml, washed blood cells",unspecific stimulatory effects
same,cytotoxic effects on blood basophils,"blood basophils; 5 mg/ml, all blood preparation methods",cytotoxic effects
same,MFI-CCR3 shift (cytotoxic concentration),basophilic cells; 1 mg/ml,clearcut downregulation of MFI-CCR3
same,MFI-CCR3 shift (cytotoxic concentration),basophilic cells; 5 mg/ml,clearcut downregulation of MFI-CCR3
